Data from PubChem BioAssay AID330 (DTP/NCI, 2004).
Where “and” joins values, the source holds several entries; their conditions need not be identical. Equal values may be shown once. Toxic doses and inconclusive results are not listed.

Test system: P388 leukemia ip, CD2F1 mice, survival T/C
Experiment: NCI In Vivo Anticancer Drug Screen. Data for tumor model P388 Leukemia (intraperitoneal) in CD2F1 (CDF1) mice
Details: endpoint: median survival time, higher = longer survival
Procedure, shortened: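 Mice carrying the transplanted tumor received test compound or vehicle. Survival was recorded in each group, and the value is the treated-group measurement divided by that of the vehicle-treated control group.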

[1] = dose: 50.0 mg/kg/injection, schedule: Q01DX005 (ip), vehicle: saline with Tween-80
[2] = dose: 100.0 mg/kg/injection, schedule: Q01DX005 (ip), vehicle: saline with Tween-80
[3] = dose: 200.0 mg/kg/injection, schedule: Q01DX005 (ip), vehicle: saline with Tween-80
[4] = dose: 60.0 mg/kg/injection, schedule: Q01DX005 (ip), vehicle: saline with Tween-80
[5] = dose: 120.0 mg/kg/injection, schedule: Q01DX005 (ip), vehicle: saline with Tween-80
[6] = dose: 240.0 mg/kg/injection, schedule: Q01DX005 (ip), vehicle: saline with Tween-80
[7] = dose: 50.0 mg/kg/injection, schedule: Q01DX009 (ip), vehicle: saline
[8] = dose: 100.0 mg/kg/injection, schedule: Q01DX009 (ip), vehicle: saline
[9] = dose: 200.0 mg/kg/injection, schedule: Q01DX009 (ip), vehicle: saline
[10] = dose: 50.0 mg/kg/injection, schedule: Q01DX005 (ip), vehicle: Klucel (hydroxypropylcellulose) (HPC)
[11] = dose: 100.0 mg/kg/injection, schedule: Q01DX005 (ip), vehicle: Klucel (hydroxypropylcellulose) (HPC)
[12] = dose: 200.0 mg/kg/injection, schedule: Q01DX005 (ip), vehicle: Klucel (hydroxypropylcellulose) (HPC)
[13] = dose: 100.0 mg/kg/injection, schedule: Q04DX003 (ip), vehicle: saline
[14] = dose: 200.0 mg/kg/injection, schedule: Q04DX003 (ip), vehicle: saline
[15] = dose: 50.0 mg/kg/injection, schedule: Q01DX009 (ip), vehicle: Klucel (hydroxypropylcellulose) (HPC)
[16] = dose: 100.0 mg/kg/injection, schedule: Q01DX009 (ip), vehicle: Klucel (hydroxypropylcellulose) (HPC)
[17] = dose: 200.0 mg/kg/injection, schedule: Q01DX009 (ip), vehicle: Klucel (hydroxypropylcellulose) (HPC)
[18] = dose: 25.0 mg/kg/injection, schedule: Q04DX003 (ip), vehicle: saline with Tween-80
[19] = dose: 200.0 mg/kg/injection, schedule: Q04DX003 (ip), vehicle: saline with Tween-80

With CCOC(=O)C1=C(C)NC(CO)=C(C(=O)OCC)C1c1cccc([N+](=O)[O-])c1 (centres undefined) the T/C [1] was 94 % of control, the T/C [2] was 95 % of control and the T/C [3] was 92 % of control.

With CC1(CN2CCCCC2)COc2c(Cl)cc(Cl)cc2C1=O (centres undefined) the T/C [4] was 94 % of control, the T/C [5] was 94 % of control and the T/C [6] was 86 % of control.

OCC(O)C(O)C(O)/C=N\O (centres undefined) was tested, and the T/C [7] was 98 % of control, the T/C [8] was 105 % of control and the T/C [9] was 98 % of control.

With COC(=O)CCC(=S)N(C)C the T/C [10] was 101 % of control, the T/C [11] was 101 % of control and the T/C [12] was 103 % of control.

In the case of N#CC(C#N)/C=C/[Se]c1ccccc1, the T/C [13] is reported as 104 % of control, the T/C [14] is reported as 98 % of control and the T/C (dose: 400.0 mg/kg/injection, schedule: Q04DX003 (ip), vehicle: saline) is reported as 109 % of control.

In the case of COc1ccc(C)cc1NC(=S)NC(=O)/C=C/c1ccccc1, the T/C (dose: 25.0 mg/kg/injection, schedule: Q01DX009 (ip), vehicle: saline) is reported as 97 % of control, the T/C [7] is reported as 87 % of control and the T/C [8] is reported as 96 % of control. For the same compound, the T/C [9] was 98 % of control.

With CCOC(=O)CCC(NC(=O)c1ccc(NCCC(C)=O)cc1)C(=O)OCC (centres undefined) the T/C (dose: 50.0 mg/kg/injection, schedule: Q01DX009 (ip), vehicle: saline with Tween-80) was 104 % of control, the T/C (dose: 100.0 mg/kg/injection, schedule: Q01DX009 (ip), vehicle: saline with Tween-80) was 105 % of control and the T/C (dose: 200.0 mg/kg/injection, schedule: Q01DX009 (ip), vehicle: saline with Tween-80) was 104 % of control. For the same compound, the T/C (dose: 400.0 mg/kg/injection, schedule: Q01DX009 (ip), vehicle: saline with Tween-80) was 105 % of control.

For CCCCCCCCCCCCCCCCCC[N+](C)(C)C (tested in a mixture with another compound), the T/C (dose: 1.5 mg/kg/injection, schedule: Q01DX009 (ip), vehicle: saline with Tween-80) was 90 % of control, the T/C (dose: 3.0 mg/kg/injection, schedule: Q01DX009 (ip), vehicle: saline with Tween-80) was 113 % of control and the T/C (dose: 6.25 mg/kg/injection, schedule: Q01DX009 (ip), vehicle: saline) was 109 % of control. For the same compound, the T/C (dose: 12.5 mg/kg/injection, schedule: Q01DX009 (ip), vehicle: saline) was 113 % of control.

For Cc1oc(-c2cccc(F)c2)nc1C(N)=O, the T/C [15] was 102 % of control, the T/C [16] was 102 % of control and the T/C [17] was 100 % of control.

With COc1c(C)cc(C)c(CCl)c1-c1c(CCl)c(C)cc(C)c1OC the T/C (dose: 100.0 mg/kg/injection, schedule: Q01DX001 (ip), vehicle: Klucel (hydroxypropylcellulose) (HPC)) was 90 % of control and the T/C (dose: 200.0 mg/kg/injection, schedule: Q01DX001 (ip), vehicle: Klucel (hydroxypropylcellulose) (HPC)) was 93 % of control.

With N#Cc1c(-c2ccccc2)cn2c1[nH]c(=O)c1c3c(sc12)CCCC3 the T/C [4] was 88 % of control and 89 % of control, the T/C [5] was 87 % of control and the T/C [6] was 86 % of control and 87 % of control.

CCn1c2ccccc2c2ccc(N=Cc3ccc(N(C)C)cc3)cc21 was tested, and the T/C [15] was 89 % of control, the T/C [16] was 94 % of control and the T/C [17] was 103 % of control.

With COc1ccc(C(CC(=O)O)CC(=O)N(CCCl)CCCl)cc1 (centres undefined) the T/C (dose: 25.0 mg/kg/injection, schedule: Q01DX001 (ip), vehicle: saline) was 100 % of control and 102 % of control, the T/C [18] was 101 % of control and the T/C (dose: 25.0 mg/kg/injection, schedule: Q04DX003 (ip), vehicle: saline) was 102 % of control. For the same compound, the T/C (dose: 25.0 mg/kg/injection, schedule: Q04DX003 (ip), vehicle: suspension in saline) was 106 % of control, the T/C (dose: 50.0 mg/kg/injection, schedule: Q01DX001 (ip), vehicle: saline) was 100 % of control and 103 % of control and the T/C (dose: 50.0 mg/kg/injection, schedule: Q04DX003 (ip), vehicle: saline with Tween-80) was 102 % of control. The T/C (dose: 50.0 mg/kg/injection, schedule: Q04DX003 (ip), vehicle: saline) was 102 % of control, the T/C (dose: 50.0 mg/kg/injection, schedule: Q04DX003 (ip), vehicle: suspension in saline) was 115 % of control and the T/C (dose: 100.0 mg/kg/injection, schedule: Q01DX001 (ip), vehicle: saline) was 100 % of control and 103 % of control. For the same compound, the T/C (dose: 100.0 mg/kg/injection, schedule: Q04DX003 (ip), vehicle: saline with Tween-80) was 101 % of control, the T/C [13] was 97 % of control and the T/C (dose: 100.0 mg/kg/injection, schedule: Q04DX003 (ip), vehicle: suspension in saline) was 124 % of control. The T/C (dose: 200.0 mg/kg/injection, schedule: Q01DX001 (ip), vehicle: saline) was 100 % of control and 104 % of control, the T/C [19] was 101 % of control and the T/C [14] was 94 % of control. For the same compound, the T/C (dose: 200.0 mg/kg/injection, schedule: Q04DX003 (ip), vehicle: suspension in saline) was 157 % of control.

With Cn1c2ccccc2c2cc3c(cc21)C(=O)OC3=O the T/C (dose: 3.12 mg/kg/injection, schedule: Q01DX005 (ip), vehicle: Klucel (hydroxypropylcellulose) (HPC)) was 100 % of control, the T/C (dose: 6.25 mg/kg/injection, schedule: Q01DX005 (ip), vehicle: Klucel (hydroxypropylcellulose) (HPC)) was 93 % of control and the T/C (dose: 12.5 mg/kg/injection, schedule: Q01DX005 (ip), vehicle: Klucel (hydroxypropylcellulose) (HPC)) was 90 % of control. The T/C [10] was 88 % of control and the T/C [11] was 90 % of control.

With CCOc1cc2c(cc1C(C)c1ccccc1OC)OCO2 (centres undefined) the T/C [1] was 100 % of control, the T/C [2] was 98 % of control and the T/C [3] was 96 % of control.

With O=C(O)c1[nH]c(=O)[nH]c(=O)c1F the T/C (dose: 2.5 mg/kg/injection, schedule: Q01DX010 (ip), vehicle: saline) was 110 % of control, the T/C (dose: 5.0 mg/kg/injection, schedule: Q01DX010 (ip), vehicle: saline) was 160 % of control and the T/C (dose: 16.0 mg/kg/injection, schedule: Q01DX009 (ip), vehicle: saline) was 100 % of control.

For Cc1nn(C(=S)S)c(C)c1N=Nc1ccc(Cl)cc1Cl, the T/C [1] was 100 % of control, the T/C [2] was 96 % of control and the T/C [3] was 102 % of control.

In the case of Nc1c(Br)cc(Br)c2c1[nH]c(=O)c1ccccc12, the T/C [4] is reported as 96 % of control, the T/C [5] is reported as 90 % of control and the T/C [6] is reported as 107 % of control.

In the case of Cc1ccn(C(=O)C2=Cc3ccccc3OC2)c(=N)c1, the T/C (dose: 100.0 mg/kg/injection, schedule: Q04DX003 (ip), vehicle: Klucel (hydroxypropylcellulose) (HPC)) is reported as 106 % of control, the T/C (dose: 200.0 mg/kg/injection, schedule: Q04DX003 (ip), vehicle: Klucel (hydroxypropylcellulose) (HPC)) is reported as 103 % of control and the T/C (dose: 400.0 mg/kg/injection, schedule: Q04DX003 (ip), vehicle: Klucel (hydroxypropylcellulose) (HPC)) is reported as 100 % of control.

For C[C@]12C=CC(=O)C(O)=C1CC[C@@H]1[C@@H]2CC[C@]2(C)OC(=O)CC[C@@H]12, the T/C (dose: 5.5 mg/kg/injection, schedule: Q01DX005 (ip), vehicle: Klucel (hydroxypropylcellulose) (HPC)) was 106 % of control, the T/C (dose: 11.0 mg/kg/injection, schedule: Q01DX005 (ip), vehicle: Klucel (hydroxypropylcellulose) (HPC)) was 106 % of control and the T/C (dose: 22.0 mg/kg/injection, schedule: Q01DX005 (ip), vehicle: Klucel (hydroxypropylcellulose) (HPC)) was 101 % of control. The T/C (dose: 44.0 mg/kg/injection, schedule: Q01DX005 (ip), vehicle: Klucel (hydroxypropylcellulose) (HPC)) was 106 % of control, the T/C (dose: 88.0 mg/kg/injection, schedule: Q01DX005 (ip), vehicle: Klucel (hydroxypropylcellulose) (HPC)) was 106 % of control and the T/C (dose: 176.0 mg/kg/injection, schedule: Q01DX005 (ip), vehicle: Klucel (hydroxypropylcellulose) (HPC)) was 107 % of control.

Cc1ccc(C)c(NC(=O)Nc2ccccc2C(N)=O)c1 was tested, and the T/C [15] was 91 % of control, the T/C [16] was 113 % of control and the T/C [17] was 104 % of control.

In the case of COc1ccc(C(=O)c2c(OC)cccc2C(=O)O)cc1, the T/C [10] is reported as 105 % of control, the T/C [11] is reported as 105 % of control and the T/C [12] is reported as 97 % of control.

For Nc1nc2c([nH]c(=O)n2C2OC(CO)C(O)C2O)c(=O)[nH]1 (centres undefined), the T/C (dose: 50.0 mg/kg/injection, schedule: Q01DX005 (ip), vehicle: saline) was 109 % of control, the T/C (dose: 100.0 mg/kg/injection, schedule: Q01DX005 (ip), vehicle: saline) was 110 % of control and the T/C (dose: 200.0 mg/kg/injection, schedule: Q01DX005 (ip), vehicle: saline) was 112 % of control.

In the case of O=C(O)/C(O)=C/c1ccccc1, the T/C [18] is reported as 102 % of control and the T/C [19] is reported as 111 % of control.

With NC(=S)n1nc(-c2ccccc2)c(N=Nc2ccc(O)cc2)c1-c1ccccc1 the T/C [1] was 100 % of control, the T/C [2] was 103 % of control and the T/C [3] was 98 % of control.
